Test results: US6989397B1, “Iron chelators and uses thereof” (University of Queensland, priority 1999, dated 2006)
Several values for one entry are separate records, joined by “and”; a condition that tells them apart may be missing. Identical values can stand only once.

Columns and labels:
Format in all cases: cell-based, human
[1] = test system: SK-N-MC neuroepithelioma cells; test: 59Fe release from prelabelled cells (iron efflux); details: DFO 100 μM; for % Cellular Iron Released: labelled 3 h with 59Fe-transferrin 0.75 μM, reincubated 3 h at 37° C., chelators 50 μM, Mean±SD; for release of cellular 59Fe (FIG. 2A): 3 hr labelling, 3 hr reincubation, ligands 50 μM, FIG. 2A screening experiment
Method: (§1) The effect of chelators on ^59Fe uptake from ^59Fe-Tf and ^59Fe release from prelabelled cells was studied using standard procedures reported previously (Richardson et al., 1994, J. Lab Clin. Med. 124 660–71). The amount of ^59Fe internalized by the cells was measured by incubation with the general protease pronase (1 mg/ml) for 30 min at 4° C. to remove membrane-bound ^59Fe and Tf (Richardson et al., 1990; Baker et al., 1998, Biochim. Biophys. Acta 1380 21–30).
The efflux of ^59Fe from SK-N-MC cells was examined after a 3 hr labelling period with ^59Fe-Tf (0.75 μM) followed by a 3 hr reincubation in the presence and absence of DFO (100 μM) or the remainder of the ligands at 50 μM (FIG. 2A).
Table 1. The effect of DFO, 311, PCTH, PCBH, or PCBHH on ^59Fe release from BE-2 neuroblastoma cells, SK-N-MC neuroepithelioma cells, and SK-Mel-28 melanoma cells. Cells were labeled for 3 h at 37° C. with ^59Fe-transferrin (0.75 μM), washed, and then reincubated with the chelators for 3 h at 37° C. […] Results are Mean±SD of three determinations in a typical experiment.

[2] = test system: SK-N-MC neuroepithelioma cells; test: internalized 59Fe uptake from 59Fe-transferrin; details: for Internalised Iron Uptake (% Control) / 59Fe uptake from 59Fe-Tf, % of the control value (FIG. 2B): SK-N-MC, chelators 50 μM, DFO 100 μM; for Internalised Iron Uptake (% Control): 59Fe-transferrin 0.75 μM, 3 h at 37° C., mean±SD; for 59Fe uptake from 59Fe-Tf, % of the control value (FIG. 2B): 3 hrs at 37° C., FIG. 2B screening experiment
Method: The effect of chelators on ^59Fe uptake from ^59Fe-Tf and ^59Fe release from prelabelled cells was studied using standard procedures reported previously (Richardson et al., 1994, J. Lab Clin. Med. 124 660-71). The amount of ^59Fe internalized by the cells was measured by incubation with the general protease pronase (1 mg/ml) for 30 min at 4° C. to remove membrane-bound ^59Fe and Tf (Richardson et al., 1990; Baker et al., 1998, Biochim. Biophys. Acta 1380 21-30). […] To determine the ability of the chelators to inhibit ^59Fe uptake from ^59Fe-Tf (0.75 μM). […] Table 2. The effect of DFO, 311, […], or PCBHH on internalized ^59Fe uptake from ^59Fe-transferrin by BE-2 neuroblastoma cells, SK-N-MC neuroepithelioma cells, and SK-Mel-28 melanoma cells. Cells were incubated with the chelators and ^59Fe-transferrin (0.75 μM) for 3 h at 37° C., washed, and incubated for 30 min at 4° C. with pronase (1 mg/ml) to separate the internalized from the membrane-bound ^59Fe. All chelators were screened at a concentration of 50 μM except for DFO which was examined at 100 μM. Results are mean±SD (three determinations) from a typical experiment.

SK-Mel-28 melanoma cells = test: internalized 59Fe uptake from 59Fe-transferrin; details: 59Fe-transferrin 0.75 μM, 3 h at 37° C., chelators 50 μM, DFO 100 μM, mean±SD
Method: as §1
Table 2. The effect of DFO, 311, PCTH, PCBH, or PCBHH on internalized ^59Fe uptake from ^59Fe-transferrin by BE-2 neuroblastoma cells, SK-N-MC neuroepithelioma cells, and SK-Mel-28 melanoma cells. Cells were incubated with the chelators and ^59Fe-transferrin (0.75 μM) for 3 h at 37° C., washed, and incubated for 30 min at 4° C. with pronase (1 mg/ml) to separate the internalized from the membrane-bound ^59Fe. All chelators were screened at a concentration of 50 μM except for DFO which was examined at 100 μM. Results are mean±SD (three determinations) from a typical experiment.

GADD45 mRNA = test: Northern blot analysis of mRNA levels; details: SK-N-MC cells, 20 h; chelators 25 μM, DFO 100 μM
Method: (§2) FIG. 6. The effect of the chelators on mRNA levels of GADD45, WAF1 and β-actin in SK-N-MC neuroepithelioma cells. Total RNA was extracted from cells after a 20 h incubation with medium alone (control) or medium containing ferric ammonium citrate (100 μg/mL), DFO (100 μM), or the other chelators (25 μM). The isolated RNA was then electrophoresed on a 1.2% agarose-formaldehyde gel, transferred to a hybridisation membrane, and probed under high stringency conditions.
(§3) Northern blot analysis was performed by isolating total RNA using the Total RNA isolation Reagent from Advanced Biotechnologies Ltd (Surrey, United Kingdom). The RNA (15 μg) was heat denatured at 90° C. for 2 mins in RNA-loading buffer and then loaded onto a 1.2% agarose-formaldehyde gel. After electrophoresis, RNA was transferred to a nylon membrane (GeneScreen, New England Nuclear, Boston, USA) in 10×SSC using the capillary blotting method. The RNA was then cross-linked to the membrane using a UV-crosslinker (UV Stratalinker 1800, Stragene Ltd., USA).
(§4) The membranes were hybridized with probes specific for human WAF1, GADD-45 and β-actin. The WAF1 probe consisted of a 1 kb fragment from pSXV(ATTC: Cat. No. 79928). The GADD45 probe consisted of a 760 bp fragment from human GADD45 cDNA cloned into pHu145B2 (kindly supplied by Dr. Albert Fornace, National Cancer Institute, NIH, Maryland). The β-actin probe consisted of a 1.4 kb fragment from human β-actin cDNA cloned into pBluescript SK-(ATTC: at. No 37997).
(§5) Hybridization of probes to the membranes and their subsequent washing were performed as described by Mahmoudi and Lin, 1989, Biotechniques 7, 331–2 using a Hybaid Shake and Stack Hybridization oven (Hybaid Ltd., Middlesex, UK). The membranes were then exposed to Kodak XAR Films at −70° C. with an intensifying screen. The probes were stripped from the nylon membrane by boiling in a solution containing 10 mM Tris-HCl (pH 7.0). 1 mM EDTA (pH 8.0) and 1% SDS for 15–30 mins as described by the membrane manufacturer. Densitometric data were collected with a Laser Densitometer and analyzed by Kodak Biomax Software (Kodak Ltd, USA).

WAF1 mRNA = test: Northern blot analysis of mRNA levels; details: SK-N-MC cells, 20 h; chelators 25 μM, DFO 100 μM
Method: as §2, §3, §4, §5

Row | Compound | % Cellular Iron Released [1] [%] | 59Fe uptake from 59Fe-Tf, % of the control, range over all 3 cell lines ([2]; BE-2, SK-N-MC and SK-Mel-28 cell lines together, 3 hr, 50 μM, Table 2) | Internalised Iron Uptake (% Control) [2] | Internalised Iron Uptake (% Control) (SK-Mel-28 melanoma cells) | level of GADD45 mRNA (FIG. 6) (GADD45 mRNA) | level of WAF1 mRNA (FIG. 6) (WAF1 mRNA) | release of cellular 59Fe (FIG. 2A) [1] | 59Fe uptake from 59Fe-Tf, % of the control value (FIG. 2B) [2]
1 | O=C(NN=Cc1c(O)ccc2ccccc12)c1ccncc1 [Chelator 311, 2-hydroxy-1-naphthylaldehyde isonicotinoyl hydrazone, reference compound] | 49 ± 1 | 8–10 % of the control | 10 ± 4 % Control | 9 ± 1 % Control | increase | increase |  | 
2 | CC(=O)N(O)CCCCCNC(=O)CCC(=O)N(O)CCCCCNC(=O)CCC(=O)N(O)CCCCCN [DFO, desferrioxamine, reference compound] | 18 ± 3 |  | 100 % Control and 100 ± 6 % Control | 98 % Control and 98 ± 7 % Control |  |  | 19% | 91 % of the control
3 | O=C(NN=Cc1ccco1)c1ccncc1 [FIH, 2furoylcarboxaldehyde isonicotinoyl hydrazone] |  |  |  |  |  |  | did not appreciably increase | no effect
4 | O=C(NN=Cc1ccccn1)c1ccccc1 [PCBH, 2-pyridylcarboxaldehyde benzoyl hydrazone] | 47 ± 3 |  | 20 ± 2 % Control | 36 ± 6 % Control | did not have any effect | did not have any effect |  | 
5 | O=C(NN=Cc1ccccn1)c1cccs1 [PCTH, 2-pyridylcarboxaldehyde 2-thiophenecarboxyl hydrazone] | 51 ± 5 |  | 16 ± 1 % Control | 38 ± 6 % Control | did not have any effect | did not have any effect |  | 
